{"source": "patent US20200264182A1", "about": "“METHOD FOR DETECTING PROSTATE CANCER” (J-OIL MILLS, INC., priority 2017, published 2020)", "test_system": "serum fucosylated PSA", "test": "Sandwich ELISA, anti-PSA antibody and biotin-labeled lectin", "type": "binding, human", "conditions": "for Δ (=A − B): reaction value of Prostate cancer 4 minus Healthy 1; for lectin reaction value B of Healthy 1: serum of Healthy 1; for lectin reaction value A of Prostate cancer 4: serum of Prostate cancer 4, GS 6 (3 + 3)", "method": "The anti-PSA antibody from which sugar chains had been removed was diluted to 5 μg/mL with PBS. 25 μL of this diluted solution was added to each well of an ELISA plate and allowed to stand at 37° C. for 12 hours, and then the additive solution was discarded.\n150 μL of PBS containing 0.05% Tween 20 (product name: polyoxyethylene sorbitan monolaurate, from Nacalai Tesque, Inc.) was added to each well, and then the additive solution was discarded. This manipulation was repeated three times in total.\n25 μL of 1% BSA/PBS was added to each well and allowed to stand at 37° C. for 1 hour, and then the additive solution was discarded.\n150 μL of PBS containing 0.05% Tween 20 was added to each well, and then the additive solution was discarded. This manipulation was repeated three times in total.\nTo graph a calibration curve, 25 μL of the fucosylated PSA reference standard diluted with 1% BSA/PBS to a concentration of 0 to 200 ng/mL was added to each well and allowed to stand at room temperature for 1 hour, and then the additive solution was discarded. In addition, to detect the fucosylated PSA in the serum of the subject by the lectin, 25 μL of serum of “Healthy 1” and “Prostate cancer 4” 2-fold diluted with PBS was added to each well and allowed to stand at room temperature for 1 hour, and then the additive solution was discarded.\nIn Reference Example 1, 25 μL of a biotin-labeled PhoSL diluted to 0.1 μg/mL with 0.1% BSA/PBS (pH 7.4) was added to each well and allowed to stand at 4° C. for 30 minutes, and then the additive solution was discarded. In Example 1, 25 μL of a biotin-labeled PhoSL diluted to 0.1 μg/mL with 0.1% BSA/10-fold diluted PBS+glycine-NaOH (pH 9.6) was added to each well and allowed to stand at 4° C. for 30 minutes, and then the additive solution was discarded.\n25 μL of a horseradish peroxidase (HRP)-labeled streptavidin solution (from Vector Laboratories, Inc., concentration: 0.4 μg/mL, in 1% BSA/PBS) was added to each well and allowed to stand at room temperature for 30 minutes, and then the additive solution was discarded.\n25 μL of chromogenic substrate for HRP (product name: TMB, from Kirkegaard & Perry Laboratories, Inc.) was added to each well and allowed to stand at room temperature for 10 minutes.\n25 μL of 1M phosphoric acid was added to terminate the reaction.\nAbsorbance (Ab) at 450 nm and 630 nm was measured using a plate reader, and a measurement (Ab450-630) was obtained.\nA calibration curve was graphed by plotting signals (reaction values, Ab450-630) of the fucosylated PSA reference standard with the biotin-labeled PhoSL. A Signal (Ab450-630) of the biotin-labeled PhoSL corresponding to the fucosylated PSA concentration of 10 ng/mL was defined as 10 U/mL.\nThe signals of biotin-labeled PhoSL (Ab450-630) for the serum fucosylated PSA in the subject samples A were assigned to the calibration curve to calculate reaction values (unit: U/mL).\nThe PhoSL reaction values for the subject samples A were measured by the same operation as in Example 1. From the PhoSL reaction values, an average value and a median value were determined. Furthermore, a standard cutoff value (89.7 U/mL) was used to determine a detection rate (positive rate) of the prostate cancer patients, and a false detection rate (false positive rate) of the healthy persons.\nComparative Example 2 in Table 9 indicates results of detecting the serum fucosylated PSA using AAL (AAL reaction values) in the subject samples A. Specifically, in Reference Example 1, AAL reaction values were measured in the same manner as in Reference Example 1 except that the biotin-labeled PhoSL was replaced with a biotin-labeled AAL. A standard cut-off value for the AAL reaction values was 894.8 U/mL. As in Example 2, an average value, a median value, a positive rate and a false positive rate were determined from the AAL reaction values.", "data": [{"substance": "PhoSL peptide: synthesized Pholiota squarrosa lectin peptide, SEQ ID No. 6 (Lys substitutions at 1, 20, 39; 40th Gly deleted) (KPVPVTKLVCDGDTYKCTAKLDFGDGRWVAQWDTNVFHK; Modification of SEQ ID(1) in which Ala at position 1, Tyr at position 20 and Thr at position 39 are substituted with Lys, and Gly at position 40 is deleted.)", "values": [{"measurement": "Δ (=A − B)", "setting": "pH in lectin reaction 7.4", "value": 100.5, "unit": "U/mL"}, {"measurement": "Δ (=A − B)", "setting": "pH in lectin reaction 9.6", "value": 234.4, "unit": "U/mL"}, {"measurement": "lectin reaction value B of Healthy 1", "setting": "pH in lectin reaction 7.4", "value": 1.0, "unit": "U/mL"}, {"measurement": "lectin reaction value B of Healthy 1", "setting": "pH in lectin reaction 9.6", "value": "Below detection limit"}, {"measurement": "lectin reaction value A of Prostate cancer 4", "setting": "pH in lectin reaction 7.4", "value": 101.5, "unit": "U/mL"}, {"measurement": "lectin reaction value A of Prostate cancer 4", "setting": "pH in lectin reaction 9.6", "value": 234.4, "unit": "U/mL"}]}]}
